Data on 15 molecules can be found in ChEMBL document CHEMBL5233269, “Anticancer potential of spirocompounds in medicinal chemistry: A pentennial expedition” (Eur J Med Chem, 2021).

Values after ≈ are worked out from the molar mass of the structure shown.

The subject of one data set is MGC-803. Briefly: Antiproliferative activity against human MGC-803 cells assessed as cell growth inhibition. It counts as functional, cell-based.
Data set [1] relates to A549. Briefly: Antiproliferative activity against human A549 cells assessed as cell growth inhibition. It counts as functional, cell-based.
For the next data set, the system named is Bel-7402. Briefly: Antiproliferative activity against human Bel-7402 cells. In kind it is functional, cell-based.
The nature of data set [2]: Antiproliferative activity against human Panel (10 carcinoma cell lines) cells. It counts as functional, cell-based.
Data set [3] has as its system HCT-116. Briefly: Antiproliferative activity against human HCT-116 cells assessed as cell growth inhibition. In kind it is functional, cell-based.
Data set [4] deals with MDA-MB-231. Briefly: Cytotoxicity against human MDA-MB-231 cells. It counts as functional, cell-based.
Data set [5] is described as follows: Cytotoxicity against human H357 cells. In kind it is functional, cell-based.
The subject of data set [6] is MCF7. Briefly: Cytotoxicity against human MCF7 cells. In kind it is functional, cell-based.
For data set [7], the system named is HCT-116. Briefly: Cytotoxicity against human HCT-116 cells assessed a reduction in cell viability. In kind it is functional, cell-based.
The test system of data set [8] is PC-3. Briefly: Anticancer activity against human PC-3 cells assessed as reduction in cell proliferation. In kind it is functional, cell-based.
The next data set concerns HOP-92. Briefly: Anticancer activity against human HOP-92 cells assessed as reduction in cell proliferation. In kind it is functional, cell-based.
For another data set, the system named is UO-31. Briefly: Anticancer activity against human UO-31 cells assessed as reduction in cell proliferation. In kind it is functional, cell-based.
For data set [9], the system named is A549. Briefly: Anticancer activity against human A549 cells assessed as reduction in cell proliferation. In kind it is functional, cell-based.
Data set [10] relates to MDA-MB-231. Briefly: Antiproliferative activity against human MDA-MB-231 cells assessed as reduction in tumor cell proliferation. It counts as functional, cell-based.
For data set [11], the system named is MCF7. Briefly: Cytotoxicity against human MCF7 cells assessed as lethal dose. It counts as functional. Particulars: read-out: LD50 (the source's name).
Data set [12] deals with MDA-MB-231. Briefly: Antiproliferative activity against human MDA-MB-231 cells assessed as inhibition of cell viability by MTT assay. It counts as functional, cell-based. On the technique in general: Formazan colour is commonly taken as a measure of viable cells.
Data set [13] deals with PC-3. Briefly: Antiproliferative activity against human PC-3 cells assessed as inhibition of cell viability by MTT assay. In kind it is functional, cell-based.
Another data set deals with DU-145. Briefly: Antiproliferative activity against human DU-145 cells assessed as inhibition of cell viability by MTT assay. In kind it is functional, cell-based.
For data set [14], the system named is MCF7. Briefly: Antiproliferative activity against human MCF7 cells by MTT assay. In kind it is functional, cell-based.
In a further data set the test system is HaCaT. Briefly: Growth inhibition of human HaCaT cells. In kind it is functional.
The subject of another data set is HepG2. Briefly: Anticancer activity against human HepG2 cells at 50 ug/ml measured after 48 hrs relative to control. It counts as functional. Particulars: dose 50 µg/ml.
The next data set relates to NCI-H460. Briefly: Growth inhibition of human NCI-H460 cells. It counts as functional, cell-based.
For data set [15], the system named is MCF7. Briefly: Anticancer activity against human MCF7 cells assessed as inhibition of cell proliferation. It counts as functional, cell-based.
The next data set has as its system KB. Briefly: Anticancer activity against human KB cells assessed as inhibition of cell proliferation. It counts as functional, cell-based.
A further data set relates to CT26. Briefly: Anticancer activity against mouse CT26 cells at 50 ug/ml measured after 24 hrs relative to control. In kind it is functional. To be noted: dose 50 µg/ml.
The target in data set [16] is T1, Androgen receptor (Homo sapiens, UniProt P10275). Briefly: Antagonist activity at androgen receptor (unknown origin) assessed as inhibition constant.
T1 sequence (P10275 whole entry): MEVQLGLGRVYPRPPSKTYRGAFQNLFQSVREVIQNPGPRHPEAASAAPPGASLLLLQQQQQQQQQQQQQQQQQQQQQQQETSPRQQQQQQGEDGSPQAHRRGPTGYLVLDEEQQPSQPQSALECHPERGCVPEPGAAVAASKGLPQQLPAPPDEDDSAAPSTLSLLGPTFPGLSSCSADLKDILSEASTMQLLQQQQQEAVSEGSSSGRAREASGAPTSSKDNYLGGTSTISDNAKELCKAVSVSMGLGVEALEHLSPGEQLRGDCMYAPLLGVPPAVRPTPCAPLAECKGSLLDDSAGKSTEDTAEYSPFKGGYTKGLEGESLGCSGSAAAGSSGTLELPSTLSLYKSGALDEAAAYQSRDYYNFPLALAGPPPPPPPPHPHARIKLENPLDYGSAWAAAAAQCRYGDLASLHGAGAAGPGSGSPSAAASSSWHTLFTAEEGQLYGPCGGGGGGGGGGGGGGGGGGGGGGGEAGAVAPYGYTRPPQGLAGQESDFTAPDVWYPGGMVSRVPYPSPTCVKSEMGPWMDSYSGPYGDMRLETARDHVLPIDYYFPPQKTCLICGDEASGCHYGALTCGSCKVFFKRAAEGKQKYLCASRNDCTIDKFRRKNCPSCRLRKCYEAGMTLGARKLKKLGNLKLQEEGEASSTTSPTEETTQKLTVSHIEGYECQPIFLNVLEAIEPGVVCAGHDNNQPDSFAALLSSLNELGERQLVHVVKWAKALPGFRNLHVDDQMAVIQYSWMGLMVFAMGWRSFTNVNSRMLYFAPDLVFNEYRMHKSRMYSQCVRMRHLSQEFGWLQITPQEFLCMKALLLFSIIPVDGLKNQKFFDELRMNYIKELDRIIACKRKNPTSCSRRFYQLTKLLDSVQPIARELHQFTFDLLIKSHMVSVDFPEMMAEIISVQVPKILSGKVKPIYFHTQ
Data set [17] addresses T1, Androgen receptor. Briefly: Antagonist activity at androgen receptor (unknown origin).
Data set [18] has as its system HL-60. Briefly: Induction of mitochondrial membrane potential loss in human HL-60 cells measured after 72 hrs by […] based flow cytometric analysis. It counts as functional, cell-based. Particulars: HL-60, 72 h. (In flow cytometry, cells or beads pass a laser one at a time.)
Data set [19] relates to HL-60. Briefly: Induction of mitochondrial membrane potential loss in human HL-60 cells measured after 72 hrs by TMRM dye based flow cytometric analysis. In kind it is functional, cell-based. Particulars: HL-60, 72 h.
Data set [20] relates to MCF7. Briefly: Anticancer activity against human MCF7 cells assessed as reduction in cell proliferation. It counts as functional, cell-based.
The next data set concerns HeLa. Briefly: Anticancer activity against human HeLa cells assessed as reduction in cell proliferation. In kind it is functional, cell-based.
Data set [21] in a line: Anticancer activity against human BJ cells assessed as reduction in cell proliferation. In kind it is toxicity, cell-based.
Another data set concerns CCRF-CEM. Briefly: Anticancer activity against human CEM cells. It counts as functional, cell-based.
Another data set concerns Jurkat. Briefly: Cytotoxicity against human Jurkat cells. It counts as functional, cell-based.

Broadly, the IC50 is the concentration that inhibits the measured activity by half. As to `O=C(C[C@@H](CC1CCCC1)C(=O)N1CC2(CC2)C[C@H]1C(=O)Nc1ccc(F)cn1)NO`, the half-maximal inhibitory concentration (IC50) with MGC-803 worked out at 4.88 µM; with A549 [1], 4.88 µM; with Bel-7402, 4.88 µM; in [2] it was 2 µM; with HCT-116 [3] it was 4.88 µM.
Turning to `CCOc1cccc2c1OCC1=CCC3(O[C@H]12)C(=O)c1ccccc1C3=O`, the half-inhibitory concentration (IC50) in the data set on MDA-MB-231 [4] is 15 µM; in data set [5], 55 µM; in the data set with MCF7 [6] it was 20 µM; with HCT-116 [7], 27.5 µM.
As for `Cc1ccc(/C=C2\CN(C)C[C@]3(C2=O)[C@H](c2ccc(C)cc2)CN(C)[C@]32C(=O)N(CN3CCOCC3)c3ccccc32)cc1`, the IC50 in the data set with PC-3 [8] was found to be 0.831 µM; with HOP-92 it was 1.4 µM; with UO-31, 1.77 µM; in the data set with A549 [9] it was 3.59 µM.
With `O=C1N(C2CCCCC2)C(=O)C2(CC(c3ccccc3O)=NCCN2)N1C1CCCCC1` (centres undefined), in the data set on MDA-MB-231 [10], the concentration for half-maximal inhibition (IC50) came to 44.6 µM.
Take `COC1=C(Br)[C@@H](O)[C@]2(C=C1Br)CC(C(=O)NCC(O)c1cc(Br)c(OCCCNC(=O)C3=NO[C@]4(C=C(Br)C(OC)=C(Br)[C@@H]4O)C3)c(Br)c1)=NO2` (some centres undefined): the CC50 in the data set on MCF7 [11] came out at 17 µg/mL (≈ 15.5 µM).
For `Clc1ccc(C2=NO[C@@]3(CCCCO3)[C@H]2Br)cc1`, the 50% inhibitory concentration (IC50) with MDA-MB-231 [12] was 53.1 µM; with PC-3 [13], 56.7 µM; with DU-145, 48.1 µM; with MCF7 [14], 51.2 µM.
The term GI50 denotes the concentration that inhibits growth by half. Read a high GI50 as less potent growth inhibition. For the molecule `N#CC1=CC2(c3ccccc3NC3C=CC=CC32)N(/N=C/c2ccccc2)C1=O` (centres undefined), in the data set on HaCaT, the GI50 worked out at 2 µM.
Regarding `CCCCN1C(=O)C2(c3cc(F)ccc31)[C@@H](C(=O)OCC)[C@H](C(=O)OCC)NC2(CC(=O)OC)C(=O)OC` (some centres undefined), the Activity with HepG2 is reported as 55.92%.
For `COc1ccc(/C=N/N2C(=O)C(C#N)=CC23c2ccccc2NC2C=CC=CC23)cc1` (centres undefined), the IC50 in the data set on NCI-H460 stood at 0.12 µM.
Consider `O=C1NC(=O)C2(Cc3ccccc3N3CCSCC32)C(=O)N1` (centres undefined), for which the figures for the half-inhibitory concentration (IC50) in the data set on MCF7 [15] and in the data set on KB were 90.2 µM and 49.8 µM, respectively.
Regarding `CCOC(=O)[C@@H]1N[C@@](CC(=O)OC)(C(=O)OC)C2(C(=O)N(C(=O)OC(C)(C)C)c3ccccc32)[C@H]1c1ccc([N+](=O)[O-])cc1` (some centres undefined), the Activity in the data set with CT26 amounted to 58.89%.
As usually defined, the Ki is a measure of affinity in units of concentration, obtained from inhibition or displacement. Take `COC(=O)c1ccc(C2C(=S)N(c3ccc(C#N)c(C(F)(F)F)c3)C(=O)[C@]23CCOC3)cc1F` (some centres undefined): the Ki at Androgen receptor [16] was found to be 0.0056 µM. In addition, the 50% inhibitory concentration (IC50) against Androgen receptor [17] came out at 0.033 µM.
Consider `O=C1CS/C(=C\C2c3ccccc3Nc3ccccc32)N1N(c1ccccc1)c1ccccc1`, for which the IC50 with HL-60 [18] came to 32.2 µM; in the data set with HL-60 [19], 25.9 µM.
For the molecule `CC1CO[C@@]2(O[C@H]3CC4C5CC[C@@H]6C[C@@H](O)CC[C@]6(C)C5CC(=O)[C@]4(C)[C@H]3[C@@H]2C)/C(=C/c2ccccc2)C1` (some centres undefined), the IC50 in the data set on MCF7 [20] stood at 19.9 µM; in the data set with HeLa, 35.7 µM; in data set [21], 45.3 µM; in the data set with CCRF-CEM it was 23.2 µM.
In the data set with Jurkat, `O=C(/C=C1\CC(=O)N(c2ccc(Cl)cc2)C1=O)Nc1ccc(Cl)cc1` gave an IC50 of 33.5 µM.
